What was measured:
[1] = Solubility of stock in DMSO; format: physicochemical; conditions: 10 mM stock in DMSO
Description: Commercially available small molecules used in this study were NU7026 (SIGMA, […]), TSA (SIGMA, […]), MLN4924 (Adooq BioScience, A11260), NSC 19630 (Calbiochem, 681647), NSC 15520 (ChemBridge, 6048069), AICAR (SIGMA, A9978), RS-1 (Calbiochem, 553510), Resveratrol (Selleckchem, S1396), SCR7 (XcessBio, M60082-2s), L755507 (TOCRIS, 2197), B02 (SIGMA, SML0364) and STL127685 (Vitas-M). STL127685 is a 4-fluorophenyl analog of the non-commercially available STL127705. Stocks of 15 mM (or 10 mM for NU7026) were made using dimethylsulfoxide (DMSO)(Thermo Scientific, D12345). […] Suitable working solutions for different concentrations were made so that addition of each small molecule accounts for a final concentration of 0.08% (or 0.2% for NU7026) DMSO in the media. Addition of all small molecules would lead to a final concentration of 0.7% DMSO.

CD34^+ progenitor cells = assay: PGE of HPRT with Cpf1 electroporation in non-pluripotent cells; format: cell-based, human; conditions: primary cells
Description: (§1) Cells were grown at 37° C. in a humidified incubator gassed with 5% CO2. Media was replaced every day for stem cells and every second day for non-pluripotent cell lines. Cell cultures were maintained 4-6 days until ˜80% confluency, and subcultured at a 1:6 to 1:10 dilution.
(§2) The recombinant A.s. Cpf1 and S.p. Cas9 protein and electroporation enhancer was ordered from IDT (Coralville, USA) and nucleofection was done using the manufacturer's protocol, except for the following alterations. […] For multiplexing, only gRNAs and single stranded DNA donors were electroporated, since a Cas9n expressing iCRISPR-Cas9n hiPSC line was used. Cells were counted using the Countess Automated Cell Counter (Invitrogen).
(§3) Three days after lipofection cells were dissociated using Accutase (SIGMA, A6964), pelleted, and resuspended in 15 μl QuickExtract (Epicentre, QE0905T). Incubation at 65° C. for 10 min, 68° C. for 5 min and finally 98° C. for 5 min was performed to yield ssDNA as a PCR template. Primers for each targeted loci of CALD1, KATNA1 and SLITRK1 containing adapters for Illumina sequencing were ordered from IDT (Coralville, USA). PCR was done in a T100 Thermal Cycler (Bio-Rad) using the KAPA2G Robust PCR Kit (Peqlab, 07-KK5532-03) with supplied buffer B and 3 μl of cell extract in a total volume of 25 μl. The thermal cycling profile of the PCR was: 95° C.

CD4^+ T cells = assay: as above; format: cell-based, human; conditions: primary cells
Description: as §1, §2, §3

Row | solubility [1] | Compound | effect on PGE efficiency (CD34^+ progenitor cells) | effect on PGE efficiency (CD4^+ T cells)
1 | limiting factor | O=c1cc(N2CCOCC2)oc2c1ccc1ccccc12 [NU7026] |  | 
2 |  | NS(=O)(=O)OC[C@@H]1C[C@@H](n2ccc3c(N[C@H]4CCc5ccccc54)ncnc32)C[C@@H]1O [MLN4924, Pevonedistat] | disruptive effect | disruptive effect

From patent US12173309B2, “Compounds for increasing genome editing efficiency” (Max-Planck-Gesellschaft zur Förderung der Wissenschaften …, priority 2017, dated 2024)
